Assay: RSV-A Assay: The description is Japanese.

| Compound | EC50 |
| --- | --- |
| N#Cc1cc(-c2nnc(NC3N=C(c4ccccc4)c4ccccc4NC3=O)o2)ccc1F (stereo not drawn) | in the range around 600 nM |
| CS(=O)(=O)c1ccc(-c2nnc(NC3N=C(c4ccccc4)c4ccccc4NC3=O)o2)cc1 (stereo not drawn) | > 800 nM |
| O=C1Nc2ccccc2C(c2ccccc2)=NC1Nc1nnc(-c2cccc(F)c2)o1 (stereo not drawn) | > 800 nM |
| O=C1Nc2ccccc2C(c2ccccc2)=N[C@@H]1Nc1nnc(-c2ccco2)o1 | in the range around 600 nM |
| O=C1Nc2ccccc2C(c2ccccc2)=NC1Nc1nnc(Cc2ccccc2)o1 (stereo not drawn) | > 800 nM |
| O=C1Nc2ccccc2C(c2ccccc2)=NC1Nc1nnc(-c2ccccc2F)o1 (stereo not drawn) | > 800 nM |
| O=C1Nc2ccccc2C(c2ccccc2)=NC1Nc1nnc(-c2cccc3ccccc23)o1 (stereo not drawn) | > 800 nM |
| Cc1ccc(-c2nnc(NC3N=C(c4ccccc4)c4ccccc4NC3=O)o2)s1 (stereo not drawn) | > 800 nM |
| COc1cccc(-c2nnc(NC3N=C(c4ccccc4)c4ccccc4NC3=O)o2)c1 (stereo not drawn) | > 800 nM |
| O=C1Nc2ccccc2C(c2ccccc2)=N[C@H]1Nc1nnc(-c2ccc(F)cc2)o1 | > 800 nM |
| N#Cc1ccc(-c2nnc(NC3N=C(c4ccccc4)c4ccccc4NC3=O)o2)nc1 (stereo not drawn) | in the range around 600 nM |
| Cc1nnc(NC2N=C(c3ccccc3)c3ccccc3NC2=O)o1 (stereo not drawn) | > 800 nM |
| Cc1cccc(-c2nnc(NC3N=C(c4ccccc4)c4ccccc4NC3=O)o2)n1 (stereo not drawn) | > 800 nM |
| O=C1Nc2ccccc2C(c2ccccc2)=NC1Nc1nnc(-c2ccccc2)o1 (stereo not drawn) | > 800 nM |
| O=C1Nc2ccccc2C(c2ccccc2)=NC1Nc1nnc(-c2ccc3ccccc3c2)o1 (stereo not drawn) | in the range around 600 nM |
| COc1cc(-c2nnc(NC3N=C(c4ccccc4)c4ccccc4NC3=O)o2)ccc1F (stereo not drawn) | < 400 nM |
| O=C1Nc2ccccc2C(c2ccccc2)=NC1Nc1nnc(-c2ccc(Cl)cc2)o1 (stereo not drawn) | < 400 nM |
| O=C1Nc2ccccc2C(c2ccccc2)=NC1Nc1nnc(-c2ccc(Cl)o2)o1 (stereo not drawn) | > 800 nM |
| O=C1Nc2ccccc2C(c2ccccc2)=NC1Nc1nnc(-c2cccc(C(F)(F)F)c2)o1 (stereo not drawn) | > 800 nM |

| Compound | EC50 |
| --- | --- |
| N#Cc1cccc(-c2nnc(NC3N=C(c4ccccc4)c4ccccc4NC3=O)o2)c1 (stereo not drawn) | > 800 nM |
| NS(=O)(=O)c1ccc(-c2nnc(NC3N=C(c4ccccc4)c4ccccc4NC3=O)o2)cc1 (stereo not drawn) | in the range around 600 nM |
| O=C1Nc2ccccc2C(c2ccccc2)=NC1Nc1nnc(-c2ccc(F)cn2)o1 (stereo not drawn) | > 800 nM |
| O=C1Nc2ccccc2C(c2ccccc2)=N[C@@H]1Nc1nnc(-c2ccc(F)cc2)o1 | in the range around 600 nM |
| O=C1Nc2ccccc2C(c2ccccc2)=NC1Nc1nnc(-c2cccnc2)o1 (stereo not drawn) | > 800 nM |
| Cc1cc(-c2nnc(NC3N=C(c4ccccc4)c4ccccc4NC3=O)o2)ccc1C#N (stereo not drawn) | in the range around 600 nM |
| O=C1Nc2ccccc2C(c2ccccc2)=NC1Nc1nnc(-c2ccc(C(F)(F)F)cn2)o1 (stereo not drawn) | > 800 nM |
| COc1ccccc1-c1nnc(NC2N=C(c3ccccc3)c3ccccc3NC2=O)o1 (stereo not drawn) | > 800 nM |
| O=C1Nc2ccccc2C(c2ccccc2)=NC1Nc1nnc(C2CCOCC2)o1 (stereo not drawn) | > 800 nM |
| O=C1Nc2ccccc2C(c2ccccc2)=NC1Nc1nnc(-c2ccccn2)o1 (stereo not drawn) | in the range around 600 nM |
| N#Cc1ccc(-c2nnc(NC3N=C(c4ccccc4)c4ccccc4NC3=O)o2)cc1 (stereo not drawn) | in the range around 600 nM |
| N#Cc1ccc(-c2nnc(NC3N=C(c4ccccc4)c4ccccc4NC3=O)o2)cc1F (stereo not drawn) | > 800 nM |
| O=C1Nc2ccccc2C(c2ccccc2)=N[C@H]1Nc1nnc(-c2ccco2)o1 | > 800 nM |
| O=C1Nc2ccccc2C(c2ccccc2)=NC1Nc1nnc(-c2ccc(OC(F)(F)F)cc2)o1 (stereo not drawn) | > 800 nM |
| COc1ccc(-c2nnc(NC3N=C(c4ccccc4)c4ccccc4NC3=O)o2)cc1 (stereo not drawn) | > 800 nM |
| O=C1Nc2ccccc2C(c2ccccc2)=NC1Nc1nnc(-c2ccc(C(F)(F)F)cc2)o1 (stereo not drawn) | > 800 nM |
| CC(C)Oc1cccc(-c2nnc(NC3N=C(c4ccccc4)c4ccccc4NC3=O)o2)c1 (stereo not drawn) | in the range around 600 nM |
| O=C1Nc2ccccc2C(c2ccccc2)=NC1Nc1nnc(-c2ccc(-n3cccn3)cc2)o1 (stereo not drawn) | in the range around 600 nM |
| O=C1Nc2ccccc2C(c2ccccc2)=NC1Nc1nnc(C2CC2)o1 (stereo not drawn) | > 800 nM |

Reference: ChEMBL document CHEMBL5729210, “Benzodiazepine derivatives as RSV inhibitors” (2022)
